In patent US20230063238A1, “IMMUNOMODULATORS” (Bristol-Myers Squibb Company, priority 2020, published 2023) one finds IC50 data, which are given here for 6 molecules.

Positions of bridges follow the written chain, without caps; N, C: chain ends. Non-standard residues stand in square brackets, D forms with d. Residues, ends and D or L forms follow the SMILES beside them. *: point of attachment. Trp(1-CH2CO2Me) = COC(=O)Cn1cc(C[C@H](N)C(=O)O)c2ccccc21; Hyp = O=C(O)[C@@H]1C[C@@H](O)CN1; X5 = O=C(C(=O)*)N1CCc2ccccc2C1; X9 = O=C(Nc1ccc(F)cc1F)C(=O)*; NMeNle = CCCC[C@H](NC)C(=O)O; X4 = O=C(Nc1cccc(F)c1)C(=O)*; X6 = CN1CCN(C(=O)C(=O)*)CC1; NMeA = CN[C@@H](C)C(=O)O; Dab = NCC[C@H](N)C(=O)O; Dap = NC[C@H](N)C(=O)O; Oxamoyl = NC(=O)C(=O)*; X7 = CN(C)C(=O)C(=O)*

T1 sequence (Q9NZQ7 18-239): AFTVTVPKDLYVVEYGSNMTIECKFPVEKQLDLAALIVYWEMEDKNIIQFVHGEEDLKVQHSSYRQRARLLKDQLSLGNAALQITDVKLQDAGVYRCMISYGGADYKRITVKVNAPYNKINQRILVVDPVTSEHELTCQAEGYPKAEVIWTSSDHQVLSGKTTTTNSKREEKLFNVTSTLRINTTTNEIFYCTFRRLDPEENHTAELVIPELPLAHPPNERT

This experiment addresses T1, PD-1/PD-L1 (Homo sapiens, UniProt Q9NZQ7).
T1 construct: TVMV protease site linker (C); made in house; host or cells: HEK293T cells
The experiment can be described thus: PD-1/PD-L1 Homogenous Time-Resolved Fluorescence (HTRF) binding assay. As to conditions: PD-L1-His 10 nM final, PD-1-Ig 20 nM final; inhibitors pre-incubated with PD-L1-His for 15 m. An excerpt: The ability of the compounds of formula (I) to bind to PD-L1 was investigated using a PD-1/PD-L1 Homogenous Time-Resolved Fluorescence (HTRF) binding assay.
Homogenous Time-Resolved Fluorescence (HTRF) Binding Assay
The interaction of PD-1 and PD-L1 can be assessed using soluble, purified preparations of the extracellular domains of the two proteins. The PD-1 and PD-L1 protein extracellular domains were expressed as fusion proteins with detection tags, for PD-1, the tag was the Fc portion of Immunoglobulin (PD-1-Ig) and for PD-L1 it was the 6 histidine motif (PD-L1-His). All binding studies were performed in an HTRF assay buffer consisting of dPBS supplemented with 0.1% […] bovine serum albumin and 0.05% (v/v) Tween-20. For the h/PD-L1-His binding assay, inhibitors were pre-incubated with PD-L1-His (10 nM final) for 15 m in 4 μl of assay buffer, followed by addition of PD-1-Ig (20 nM final) in 1 μl of assay buffer and further incubation for 15m. HTRF detection was achieved using europium crypate-labeled anti-Ig (1 nM final) and allophycocyanin (APC) labeled anti-His (20 nM final). Antibodies were diluted in HTRF detection buffer and 5 μl was dispensed on top of the binding reaction. The reaction mixture was allowed to equilibrate for 30 minutes and the resulting signal (665 nm/620 nm ratio) was obtained using an EnVision fluorometer. Additional binding assays were established between the human proteins PD-1-Ig/PD-L2-His (20 & 5 nM, respectively) and CD80-His/PD-L1-Ig (100 & 10 nM, respectively).
Recombinant Proteins: Human PD-1 (25-167) with a C-terminal human Fc domain of immunoglobulin G (Ig) epitope tag [hPD-1 (25-167)-3S-IG] and human PD-L1 (18-239) with a C-terminal His epitope tag [hPD-L1(18-239)-TVMV-His] were expressed in HEK293T cells and purified sequentially by ProteinA affinity chromatography and size exclusion chromatography. Human PD-L2-His and CD80-His was obtained through commercial sources.
Table 1 lists the IC50 values for representative examples of this disclosure measured in the PD-1/PD-L1 Homogenous Time-Resolved Fluorescence (HTRF) binding assay.
(Time-resolved FRET reads energy transfer from a long-lived donor to a nearby acceptor.)
Consider `CCCC[C@H]1C(=O)N(C)[C@@H](CCCC)C(=O)N[C@@H](CC(C)C)C(=O)N[C@H](C(=O)NCC(N)=O)CSCC(=O)N[C@@H](Cc2ccc(O)cc2)C(=O)N(C)[C@@H](C)C(=O)N[C@@H](CC(N)=O)C(=O)N2CCC[C@H]2C(=O)N[C@@H](CNC(=O)C(=O)Nc2ccc(F)cc2F)C(=O)N[C@@H](CC(C)C)C(=O)N2C[C@H](O)C[C@H]2C(=O)N[C@@H](Cc2c[nH]c3ccccc23)C(=O)N[C@@H](CCNC(=O)C(=O)Nc2ccc(F)cc2F)C(=O)N[C@@H](Cc2cn(CC(=O)OC)c3ccccc23)C(=O)N1C` [Compound 2010] ({CH2CO}-Y[NMeA]NP[Dap](X9)L[Hyp]W[Dab](X9)[Trp(1-CH2CO2Me)][NMeNle][NMeNle]LCG-NH2; thioether N-14), for which the half-maximal inhibitory concentration (IC50) (as a rule, the concentration that inhibits the measured activity by half) was found to be 1.8 nM. For `CCCC[C@H]1C(=O)N(C)[C@@H](CCCC)C(=O)N[C@@H](CC(C)C)C(=O)N[C@H](C(=O)NCC(N)=O)CSCC(=O)N[C@@H](Cc2ccc(O)cc2)C(=O)N(C)[C@@H](C)C(=O)N[C@@H](CC(N)=O)C(=O)N2CCC[C@H]2C(=O)N[C@@H](CNC(=O)C(=O)N(C)C)C(=O)N[C@@H](CC(C)C)C(=O)N2C[C@H](O)C[C@H]2C(=O)N[C@@H](Cc2c[nH]c3ccccc23)C(=O)N[C@@H](CCNC(=O)C(=O)N(C)C)C(=O)N[C@@H](Cc2cn(CC(=O)OC)c3ccccc23)C(=O)N1C` [Compound 2005] ({CH2CO}-Y[NMeA]NP[Dap](X7)L[Hyp]W[Dab](X7)[Trp(1-CH2CO2Me)][NMeNle][NMeNle]LCG-NH2; thioether N-14) the value was 2.4 nM; for `CCCC[C@H]1C(=O)N(C)[C@@H](CCCC)C(=O)N[C@@H](CC(C)C)C(=O)N[C@H](C(=O)NCC(N)=O)CSCC(=O)N[C@@H](Cc2ccc(O)cc2)C(=O)N(C)[C@@H](C)C(=O)N[C@@H](CC(N)=O)C(=O)N2CCC[C@H]2C(=O)N[C@@H](CNC(=O)C(=O)N2CCN(C)CC2)C(=O)N[C@@H](CC(C)C)C(=O)N2C[C@H](O)C[C@H]2C(=O)N[C@@H](Cc2c[nH]c3ccccc23)C(=O)N[C@@H](CCNC(=O)C(=O)N2CCN(C)CC2)C(=O)N[C@@H](Cc2cn(CC(=O)OC)c3ccccc23)C(=O)N1C` [Compound 2007] ({CH2CO}-Y[NMeA]NP[Dap](X6)L[Hyp]W[Dab](X6)[Trp(1-CH2CO2Me)][NMeNle][NMeNle]LCG-NH2; thioether N-14), 9.1 nM. The result for `CCCC[C@H]1C(=O)N(C)[C@@H](CCCC)C(=O)N[C@@H](CC(C)C)C(=O)N[C@H](C(=O)NCC(N)=O)CSCC(=O)N[C@@H](Cc2ccc(O)cc2)C(=O)N(C)[C@@H](C)C(=O)N[C@@H](CC(N)=O)C(=O)N2CCC[C@H]2C(=O)N[C@@H](CNC(=O)C(=O)Nc2cccc(F)c2)C(=O)N[C@@H](CC(C)C)C(=O)N2C[C@H](O)C[C@H]2C(=O)N[C@@H](Cc2c[nH]c3ccccc23)C(=O)N[C@@H](CCNC(=O)C(=O)Nc2cccc(F)c2)C(=O)N[C@@H](Cc2cn(CC(=O)OC)c3ccccc23)C(=O)N1C` [Compound 2003] ({CH2CO}-Y[NMeA]NP[Dap](X4)L[Hyp]W[Dab](X4)[Trp(1-CH2CO2Me)][NMeNle][NMeNle]LCG-NH2; thioether N-14) reads 370 nM; that for `CCCC[C@H]1C(=O)N(C)[C@@H](CCCC)C(=O)N[C@@H](CC(C)C)C(=O)N[C@H](C(=O)NCC(N)=O)CSCC(=O)N[C@@H](Cc2ccc(O)cc2)C(=O)N(C)[C@@H](C)C(=O)N[C@@H](CC(N)=O)C(=O)N2CCC[C@H]2C(=O)N[C@@H](CNC(=O)C(=O)N2CCc3ccccc3C2)C(=O)N[C@@H](CC(C)C)C(=O)N2C[C@H](O)C[C@H]2C(=O)N[C@@H](Cc2c[nH]c3ccccc23)C(=O)N[C@@H](CCNC(=O)C(=O)N2CCc3ccccc3C2)C(=O)N[C@@H](Cc2cn(CC(=O)OC)c3ccccc23)C(=O)N1C` [Compound 2001] ({CH2CO}-Y[NMeA]NP[Dap](X5)L[Hyp]W[Dab](X5)[Trp(1-CH2CO2Me)][NMeNle][NMeNle]LCG-NH2; thioether N-14), 3.4 nM; that for `CCCC[C@H]1C(=O)N(C)[C@@H](CCCC)C(=O)N[C@@H](CC(C)C)C(=O)N[C@H](C(=O)NCC(N)=O)CSCC(=O)N[C@@H](Cc2ccc(O)cc2)C(=O)N(C)[C@@H](C)C(=O)N[C@@H](CC(N)=O)C(=O)N2CCC[C@H]2C(=O)N[C@@H](CNC(=O)C(N)=O)C(=O)N[C@@H](CC(C)C)C(=O)N2C[C@H](O)C[C@H]2C(=O)N[C@@H](Cc2c[nH]c3ccccc23)C(=O)N[C@@H](CCNC(=O)C(N)=O)C(=O)N[C@@H](Cc2cn(CC(=O)OC)c3ccccc23)C(=O)N1C` [Compound 2006] ({CH2CO}-Y[NMeA]NP[Dap](Oxamoyl)L[Hyp]W[Dab](Oxamoyl)[Trp(1-CH2CO2Me)][NMeNle][NMeNle]LCG-NH2; thioether N-14), 2.7 nM.
